Values after ≈ are worked out from the molar mass of the structure shown.
How the values were obtained:
Assay type in all cases: functional
Shigella [1] = assay: Antimicrobial activity against Shigella isolate DH-26336 by broth microdilution method
Shigella sonnei [2] = assay: Antimicrobial activity against Shigella sonnei isolate AM22451 by broth microdilution method
Shigella [3] = assay: Antimicrobial activity against Shigella isolate DH-19035 by broth microdilution method
Shigella flexneri [4] = assay: Antimicrobial activity against Shigella flexneri isolate AM13291 by broth microdilution method
Shigella flexneri [5] = assay: Antimicrobial activity against Shigella flexneri isolate AM26336 by broth microdilution method
Shigella sonnei [6] = assay: Antimicrobial activity against Shigella sonnei isolate AM22855 by broth microdilution method
Shigella [7] = assay: Antimicrobial activity against Shigella isolate DH-20369 by broth microdilution method
Shigella [8] = assay: Antimicrobial activity against Shigella isolate DH-22855 by broth microdilution method
Shigella [9] = assay: Antimicrobial activity against Shigella isolate DH-22451 by broth microdilution method
Shigella [10] = assay: Antimicrobial activity against Shigella isolate DH-13291 by broth microdilution method
Shigella flexneri [11] = assay: Antimicrobial activity against Shigella flexneri isolate AM19035 by broth microdilution method
Shigella sonnei [12] = assay: Antimicrobial activity against Shigella sonnei isolate AM20369 by broth microdilution method

SMILES | MIC (Shigella [1]) [µg/mL] | MIC (Shigella sonnei [2]) [µg/mL] | MIC (Shigella [3]) [µg/mL] | MIC (Shigella flexneri [4]) [µg/mL] | MIC (Shigella flexneri [5]) [µg/mL] | MIC (Shigella sonnei [6]) [µg/mL] | MIC (Shigella [7]) [µg/mL] | MIC (Shigella [8]) [µg/mL] | MIC (Shigella [9]) [µg/mL] | MIC (Shigella [10]) [µg/mL] | MIC (Shigella flexneri [11]) [µg/mL] | MIC (Shigella sonnei [12]) [µg/mL]
CO/N=C(\C(=O)N[C@@H]1C(=O)N2C(C(=O)[O-])=C(C[N+]3(C)CCCC3)CS[C@H]12)c1csc(N)n1 [CEFEPIME] | 4 (≈ 8.32 µM) | 8 (≈ 16.6 µM) | 4 (≈ 8.32 µM) | 2 (≈ 4.16 µM) | 2 (≈ 4.16 µM) | 8 (≈ 16.6 µM) | 16 (≈ 33.3 µM) | 16 (≈ 33.3 µM) | 16 (≈ 33.3 µM) | 4 (≈ 8.32 µM) | 2 (≈ 4.16 µM) | 8 (≈ 16.6 µM)
CO/N=C(\C(=O)N[C@@H]1C(=O)N2C(C(=O)O)=C(COC(C)=O)CS[C@H]12)c1csc(N)n1 [CEFOTAXIME] | 64 (≈ 141 µM) | 64 (≈ 141 µM) | 64 (≈ 141 µM) | 8 (≈ 17.6 µM) | 8 (≈ 17.6 µM) | 64 (≈ 141 µM) | 128 (≈ 281 µM) | 64 (≈ 141 µM) | 128 (≈ 281 µM) | 32 (≈ 70.3 µM) | 32 (≈ 70.3 µM) | 64 (≈ 141 µM)
CC(C)(O/N=C(\C(=O)N[C@@H]1C(=O)N2C(C(=O)[O-])=C(C[n+]3ccccc3)CS[C@H]12)c1csc(N)n1)C(=O)O [CEFTAZIDIME] | 4 (≈ 7.32 µM) | 8 (≈ 14.6 µM) | 2 (≈ 3.66 µM) | 0.5 (≈ 0.915 µM) | 0.5 (≈ 0.915 µM) | 8 (≈ 14.6 µM) | 16 (≈ 29.3 µM) | 16 (≈ 29.3 µM) | 32 (≈ 58.5 µM) | 2 (≈ 3.66 µM) | 0.5 (≈ 0.915 µM) | 8 (≈ 14.6 µM)
CO/N=C(\C(=O)N[C@@H]1C(=O)N2C(C(=O)O)=C(CSc3nc(=O)c(O)nn3C)CS[C@H]12)c1csc(N)n1 [CEFTRIAXONE] | 32 (≈ 57.7 µM) | > 64 | 32 (≈ 57.7 µM) | 16 (≈ 28.9 µM) | 16 (≈ 28.9 µM) | 64 (≈ 115 µM) | > 64 | > 64 | > 64 | 32 (≈ 57.7 µM) | 32 (≈ 57.7 µM) | 64 (≈ 115 µM)
